Legend:
[1] = tested on: ENR+CD organoids (ISC to Paneth cell differentiation); experiment: Primary screen: basal (non-stimulated) lysozyme secretion LYZ.NS, 2.5-D 384-well ENR+CD organoid differentiation; type: cell-based, mouse
Text: (§1) High-throughput screening.

ENR+CD organoids = experiment: Primary screen: ATP (CellTiter-Glo 3D, CTG) cell number/viability, 2.5-D 384-well ENR+CD organoids; conditions: primary screen; for Z.CTG: standard z score;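 on all read-outs here: compounds given at plating and again on day 3 over a 6-day differentiation from ENR+CV stem-cell-enriched precursors, ATP measured on day 6, plate median as control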
[2] = tested on: ENR+CD organoids (ISC to Paneth cell differentiation); experiment: Primary screen: CCh-stimulated lysozyme secretion LYZ.S, 2.5-D 384-well ENR+CD organoid differentiation; type: cell-based, mouse; conditions: primary screen
Text: as §1

[3] = primary screen, dose 0.08 uM, standard z score
[4] = primary screen, dose 0.40 uM, standard z score
[5] = primary screen, dose 2.00 uM, standard z score
[6] = primary screen, dose 10.00 uM, standard z score
[7] = primary screen; dose 0.08 uM; FC vs plate median
[8] = primary screen; dose 0.40 uM; FC vs plate median
[9] = primary screen; dose 2.00 uM; FC vs plate median
[10] = primary screen; dose 10.00 uM; FC vs plate median
[11] = dose 0.08 uM, FC vs plate median
[12] = dose 0.40 uM, FC vs plate median
[13] = dose 2.00 uM, FC vs plate median
[14] = dose 10.00 uM, FC vs plate median
[15] = dose 0.08 uM, FC relative to plate median
[16] = dose 0.40 uM, FC relative to plate median
[17] = dose 2.00 uM, FC relative to plate median
[18] = dose 10.00 uM, FC relative to plate median

| Structure (SMILES) | Dose.FC.LYZ.NS ([1]; primary screen, dose 0.08 uM) [log2 fold change] | Z.LYZ.NS (standard z score) ([1]; primary screen, dose 0.08 uM) | Dose.FC.LYZ.NS ([1]; primary screen, dose 0.40 uM) [log2 fold change] | Z.LYZ.NS (standard z score) ([1]; primary screen, dose 0.40 uM) | Dose.FC.LYZ.NS ([1]; primary screen, dose 2.00 uM) [log2 fold change] | Z.LYZ.NS (standard z score) ([1]; primary screen, dose 2.00 uM) | Dose.FC.LYZ.NS ([1]; primary screen, dose 10.00 uM) [log2 fold change] | Z.LYZ.NS (standard z score) ([1]; primary screen, dose 10.00 uM) | Dose.FC.CTG (ENR+CD organoids; dose 0.08 uM) [log2 fold change] | Z.CTG (standard z score) (ENR+CD organoids; dose 0.08 uM) | Dose.FC.CTG (ENR+CD organoids; dose 0.40 uM) [log2 fold change] | Z.CTG (standard z score) (ENR+CD organoids; dose 0.40 uM) | Dose.FC.CTG (ENR+CD organoids; dose 2.00 uM) [log2 fold change] | Z.CTG (standard z score) (ENR+CD organoids; dose 2.00 uM) | Dose.FC.CTG (ENR+CD organoids; dose 10.00 uM) [log2 fold change] | Z.CTG (standard z score) (ENR+CD organoids; dose 10.00 uM) | Dose.FC.LYZ.S ([2]; dose 0.08 uM) [log2 fold change] | Dose.FC.LYZ.S ([2]; dose 0.40 uM) [log2 fold change] | Dose.FC.LYZ.S ([2]; dose 2.00 uM) [log2 fold change] | Dose.FC.LYZ.S ([2]; dose 10.00 uM) [log2 fold change] | other results |
| --- | --- | --- | --- | --- | --- | --- | --- | --- | --- | --- | --- | --- | --- | --- | --- | --- | --- | --- | --- | --- | --- |
| O=C1C(=O)N(Cc2ccc(Cl)c(Cl)c2)c2ccccc21 [Apoptosis Activator 2] | 0.149 | 1.302 | 0.033 | 0.290 | −0.006 | −0.049 | −0.199 | −1.734 | 0.304 | 0.725 | 0.262 | 0.626 | 0.082 | 0.195 | −0.158 | −0.378 | 0.132 | 0.073 | −0.009 | −0.252 | – |
| Cc1sc2c(c1C)C(c1ccc(Cl)cc1)=N[C@@H](CC(=O)Nc1ccc(O)cc1)c1nnc(C)n1-2 [OTX015] | – | – | – | – | – | – | – | – | – | – | – | – | – | – | – | – | – | – | – | – | Z.LYZ.NS [1, 3]: −1.726; Z.LYZ.NS [1, 4]: −2.317; Z.LYZ.NS [1, 5]: −2.082; Z.LYZ.NS [1, 6]: −2.225; Dose.FC.LYZ.NS [1, 7]: −0.198 log2 fold change; Dose.FC.LYZ.NS [1, 8]: −0.266 log2 fold change; Dose.FC.LYZ.NS [1, 9]: −0.239 log2 fold change; Dose.FC.LYZ.NS [1, 10]: −0.256 log2 fold change; Dose.FC.CTG (ENR+CD organoids; [11]): −0.038 log2 fold change; Dose.FC.CTG (ENR+CD organoids; [12]): −0.398 log2 fold change; Dose.FC.CTG (ENR+CD organoids; [13]): −0.686 log2 fold change; Dose.FC.CTG (ENR+CD organoids; [14]): −0.908 log2 fold change; Dose.FC.LYZ.S [2, 11]: −0.279 log2 fold change; Dose.FC.LYZ.S [2, 12]: −0.350 log2 fold change; Dose.FC.LYZ.S [2, 13]: −0.350 log2 fold change; Dose.FC.LYZ.S [2, 14]: −0.362 log2 fold change |
| C/C(=C\C(=O)Nc1ccccc1C(=O)O)c1ccc2ccccc2c1 [BIBR 1532] | 0.032 | 0.282 | 0.043 | 0.377 | −0.013 | −0.117 | −0.062 | −0.536 | 0.223 | 0.533 | −0.047 | −0.113 | −0.034 | −0.080 | 0.030 | 0.072 | 0.028 | 0.107 | −0.081 | −0.114 | – |
| COc1cc2/c(=N/c3ccc(Br)cc3F)nc[nH]c2cc1OCC1CCN(C)CC1 [Vandetanib (ZD6474)] | −0.068 | −0.594 | −0.091 | −0.792 | −0.271 | −2.356 | −0.298 | −2.594 | −0.648 | −1.547 | −0.366 | −0.874 | −0.874 | −2.089 | −1.206 | −2.880 | −0.139 | −0.054 | −0.384 | −0.494 | – |
| CC(/C=C/C(=O)NO)=C\[C@@H](C)C(=O)c1ccc(N(C)C)cc1 [Trichostatin A (TSA)] | −0.064 | −0.554 | −0.195 | −1.697 | −0.153 | −1.334 | −0.149 | −1.298 | 0.191 | 0.457 | −0.801 | −1.913 | −0.904 | −2.159 | −0.826 | −1.974 | −0.124 | −0.254 | −0.210 | −0.202 | – |
| CC1=C(C(=O)OC2CCCCC2)C(c2ccc([N+](=O)[O-])cc2)C2=C(CC(C)(C)CC2=O)N1 (centres unmarked) [FLI-06] | 0.050 | – | −0.026 | – | −0.054 | – | −0.140 | – | 0.089 | – | 0.095 | – | 0.076 | – | −0.343 | – | 0.079 | 0.010 | −0.077 | −0.170 | Z.LYZ.NS ([1]; primary screen, standard z score, dose 0.08 uM): 0.439; Z.LYZ.NS ([1]; primary screen, standard z score, dose 0.40 uM): −0.230; Z.LYZ.NS ([1]; primary screen, standard z score, dose 2.00 uM): −0.466; Z.LYZ.NS ([1]; primary screen, standard z score, dose 10.00 uM): −1.216; Z.CTG (ENR+CD organoids; dose 0.08 uM): 0.213; Z.CTG (ENR+CD organoids; dose 0.40 uM): 0.226; Z.CTG (ENR+CD organoids; dose 2.00 uM): 0.182; Z.CTG (ENR+CD organoids; dose 10.00 uM): −0.819 |
| O=C1NC(=O)/C(=C/c2ccc(-c3ccc(F)cc3O)o2)S1 [AS-252424] | 0.070 | 0.609 | −0.042 | −0.368 | −0.080 | −0.695 | −0.077 | −0.671 | 0.139 | 0.333 | −0.074 | −0.176 | −0.359 | −0.858 | −0.204 | −0.487 | 0.072 | −0.008 | −0.074 | −0.022 | – |
| CCc1nc(N)nc(N)c1-c1ccc(Cl)cc1 [Pyrimethamine] | – | – | – | – | – | – | – | – | – | – | – | – | – | – | – | – | – | – | – | – | Dose.FC.LYZ.NS ([1]; primary screen, dose 0.08 uM, FC relative to plate median): −0.005 log2 fold change; Z.LYZ.NS [1, 3]: −0.041; Dose.FC.LYZ.NS ([1]; primary screen, dose 0.40 uM, FC relative to plate median): −0.018 log2 fold change; Z.LYZ.NS [1, 4]: −0.160; Dose.FC.LYZ.NS ([1]; primary screen, dose 2.00 uM, FC relative to plate median): −0.144 log2 fold change; Z.LYZ.NS [1, 5]: −1.255; Dose.FC.LYZ.NS ([1]; primary screen, dose 10.00 uM, FC relative to plate median): −0.138 log2 fold change; Z.LYZ.NS [1, 6]: −1.199; Dose.FC.CTG (ENR+CD organoids; [15]): 0.007 log2 fold change; Dose.FC.CTG (ENR+CD organoids; [16]): −0.259 log2 fold change; Dose.FC.CTG (ENR+CD organoids; [17]): −0.416 log2 fold change; Dose.FC.CTG (ENR+CD organoids; [18]): −0.620 log2 fold change; Dose.FC.LYZ.S [2, 15]: 0.042 log2 fold change; Dose.FC.LYZ.S [2, 16]: −0.026 log2 fold change; Dose.FC.LYZ.S [2, 17]: −0.162 log2 fold change; Dose.FC.LYZ.S [2, 18]: −0.282 log2 fold change |
| Cc1cccc(CC(=O)N2CCc3c2ccc(-c2cn(C)c4ncnc(N)c24)c3F)n1 [GSK2656157] | – | −0.267 | – | −0.396 | – | −0.291 | – | −0.102 | – | 0.162 | – | 0.274 | – | 0.197 | – | 0.284 | – | – | – | – | Dose.FC.LYZ.NS (log2 fold change) ([1]; primary screen, dose 0.08 uM): −0.031; Dose.FC.LYZ.NS (log2 fold change) ([1]; primary screen, dose 0.40 uM): −0.045; Dose.FC.LYZ.NS (log2 fold change) ([1]; primary screen, dose 2.00 uM): −0.033; Dose.FC.LYZ.NS (log2 fold change) ([1]; primary screen, dose 10.00 uM): −0.012; Dose.FC.CTG (log2 fold change) (ENR+CD organoids; dose 0.08 uM): 0.068; Dose.FC.CTG (log2 fold change) (ENR+CD organoids; dose 0.40 uM): 0.115; Dose.FC.CTG (log2 fold change) (ENR+CD organoids; dose 2.00 uM): 0.083; Dose.FC.CTG (log2 fold change) (ENR+CD organoids; dose 10.00 uM): 0.119; Dose.FC.LYZ.S (log2 fold change) ([2]; dose 0.08 uM): −0.008; Dose.FC.LYZ.S (log2 fold change) ([2]; dose 0.40 uM): 0.060; Dose.FC.LYZ.S (log2 fold change) ([2]; dose 2.00 uM): −0.020; Dose.FC.LYZ.S (log2 fold change) ([2]; dose 10.00 uM): 0.090 |
| COc1ccccc1N1CCN(CC(O)COc2cccc3ccccc23)CC1 (centres unmarked) [Naftopidil] | – | – | – | – | – | – | – | – | – | – | – | – | – | – | – | – | – | – | – | – | Z.LYZ.NS [1, 3]: −0.325; Z.LYZ.NS [1, 4]: −0.713; Z.LYZ.NS [1, 5]: −0.171; Z.LYZ.NS [1, 6]: −0.638; Dose.FC.LYZ.NS [1, 7]: −0.037 log2 fold change; Dose.FC.LYZ.NS [1, 8]: −0.082 log2 fold change; Dose.FC.LYZ.NS [1, 9]: −0.020 log2 fold change; Dose.FC.LYZ.NS [1, 10]: −0.073 log2 fold change; Dose.FC.CTG (ENR+CD organoids; [11]): −0.039 log2 fold change; Dose.FC.CTG (ENR+CD organoids; [12]): −0.161 log2 fold change; Dose.FC.CTG (ENR+CD organoids; [13]): −0.179 log2 fold change; Dose.FC.CTG (ENR+CD organoids; [14]): −0.132 log2 fold change; Dose.FC.LYZ.S [2, 11]: 0.015 log2 fold change; Dose.FC.LYZ.S [2, 12]: −0.128 log2 fold change; Dose.FC.LYZ.S [2, 13]: −0.097 log2 fold change; Dose.FC.LYZ.S [2, 14]: −0.079 log2 fold change |
